Experimental data taken from patent US7005425B2, “Method for treating arrhythmias” (CV Therapeutics, Inc., priority 2002, dated 2006).

How the values were obtained:
anesthetized guinea pigs = experiment: PR interval (AV nodal conduction) in anesthetized, paced guinea pigs; assay type: in vivo; conditions: metoprolol 0.1 mg/kg iv bolus
Excerpt: Male guinea pigs weighing 400–450 gm were obtained from Simonsen labs and housed in the institutional laboratory animal facility. Animals were anesthetized with isoflurane in the anesthetizing chamber. After determining (by toe pinch) that the animal is adequately anesthetized, the animals was intubated with an endotracheal tube and ventilated with isoflurane and oxygen mixture using anesthesia workstation. Using sterile equipment and aseptic technique, the right carotid artery was exposed and a catheter inserted for recording of blood pressure (BP). A quadripolar electrode catheter was introduced via the right jugular vein and positioned in the right atrium and ventricle for atrial and ventricular pacing. The hearts were paced at a constant rate (330–360 bpm) to eliminate the effect of heart rate variability between animals. Another catheter was inserted into the left jugular vein and positioned in the right atrium for the administration of drugs and saline. Subcutaneous needles were used as standard electrocardiographic leads to record the electrocardiogram (ECG). After completion of surgery and instrumentation, a 20 min equilibration period was allowed before beginning the experimental protocol. […] When the two agents were given in combination the PR interval was increased up to 15 msec. […] Esmolol was administered at three different infusion rates. […]

awake rats = experiment: Telemetry studies of heart rate in awake rats; assay type: in vivo, Rats (Sprague Dawley)
Protocol: Rats (Sprague Dawley) weighing 300–400 gms were purchased from Simonsen laboratories. CVT-3619 was dissolved in DMSO and further diluted in saline. CVT-510 was dissolved in saline. Ketamine was purchased from Fort Dodge Animal Health, Xylazine from Bayer and Acepromazine Maleate from Fermenta Animal Health Co. Metoprolol and propranolol were purchased from SIGMA. Esmolol was obtained from a local pharmacy.
For these studies, rats were instrumented with radiotelemetered transmitters (Data Sciences) at least 3 weeks prior to experimentation. Animals were anesthetized by peritoneal injection of a “cocktail” (1 ml/kg) containing Ketamine (75 mg/ml), Xylazine (5 mg/ml), and Acepromazine (1 mg/ml). After 20–30 minutes of induction of anesthesia, a midline laparotomy was performed. The transmitter for recordings of ECG, blood pressure and body temperature was placed in the abdominal cavity, and secured to the abdominal muscles. Two electrocardiographic leads were tunneled through the subcutaneous—one toward the upper left shoulder and the other to the right thigh, and secured with sutures. A fluid filled sensor catheter was inserted in the descending aorta above the iliac bifurcation for measurement of blood pressure. The tip of the telemetry catheter was located in the abdominal aorta just caudal to the renal arteries. Once the transmitter and leads were in place and determined to be functioning properly, the abdominal wall was sutured. After recovery from anesthesia, the rats were housed individually in cages placed on their respective receivers. The ECG, blood pressure and temperature were recorded and heart rate measured by a Dataquest ART Gold system (Version 2.2; Data Sciences Intl). The system consisted of a transmitter, i.e., biopotential sensor (Model TL11M2-C50-PXT), receivers (Model RPC-1), a consolidation matrix (BCM 100), a personal computer (Compaq DeskPro Series 3574) and Dataquest 4 software. Heart rate, blood pressure and temperature were measured at 5-minute intervals. Each recording lasted 10 seconds and all cardiac cycles within this period were averaged. Animals were given various drugs in a randomized manner after recording the baseline data for at least two hours.
A subgroup of animals was implanted with osmotic pumps containing CVT-510 for combination experiments. […]
The slowing of heart rate caused by each treatment was quantified by determining the area under the curve (AUC), using the trapezoidal method for calculations. Data used for analysis was the area under/over the curve calculated using change form baseline data (untreated animals). The data was analyzed for the magnitude as well as the duration of bradycardia caused by each treatment. […]

[1] = cited from earlier work

COCCc1ccc(OCC(O)CNC(C)C)cc1 (stereo not shown) [metoprolol, reference compound]
increase of PR interval (FIG. 9) (anesthetized guinea pigs): 5 ms

COC(=O)CCc1ccc(OCC(O)CNC(C)C)cc1 (stereo not shown) [esmolol, reference compound]
effect on heart rate (FIG. 3) (awake rats; esmolol 10 mg/kg ip alone, heart rate increase caused by handling): only slightly reduces the increase in heart rate

O[C@@H]1[C@@H](CSc2ccccc2F)OC(n2cnc3c(N[C@@H]4CCC[C@H]4O)ncnc32)[C@@H]1O (stereo partly drawn) [CVT-3619, 2-{6-[((1R,2R)-2-hydroxycyclopentyl)amino]purin-9-yl}(4S,5S,3R)-5-[(2-fluorophenylthio)methyl]oxolane-3,4-diol]
effect on heart rate (FIG. 1) (awake rats; CVT-3619 0.5 mg/kg ip alone): minimal effect on heart rate

Nc1ncnc2c1ncn2[C@@H]1O[C@H](CO)[C@@H](O)[C@H]1O [Adenosine]
half-life [1]: ~10 s
